# Experimental data: patent publication US5200397A, “Use of peptide analogs of thrombospondin for the inhibition of angiogenic activity” (W. R. Grace & Co.-Conn., priority 1991, dated 1993)
# Residues, ends and D or L forms follow the SMILES beside them. No end group written: not given here.
# Key:
# [1] = system: chicken chorioallantoic membrane (CAM); test: CAM assay (antiangiogenesis, Avascular Index); format: in vivo; details: any dosage
# Description: Assays for antiangiogenic properties on the chicken chorioallantoic membrane (CAM) were performed using the "egg culture" technique (Auerbach, Dev. Biol. (1974) 41:391 and Crum, Science (1985) 230:1375). The fertilized White Leghorn egg (Truslow Farms, Chestertown, Md.) used in this method was removed from the shell on day 3 (after fertilization) and placed in a culture dish. The "cultured egg" was maintained through day 6 at 37° C. in an atmosphere of 2% CO2 and a relative humidity of 70%. After day 6 incubation was carried out without supplemental CO2.
# Test materials were implanted on the CAM using low gelling temperature agarose pellets (Castellot, J. Cell Physiol. (1986) 127:323). This assay was performed twice. In the first assay, the test materials included pellets containing 90, 9, and 0.9 μg of peptide p1 (SEQ ID No. 1) diluted in water. […]
# Antiangiogenesis was examined in an assay for inhibition of embryonic angiogenesis as described by Fenselau in "Growth and Maturation Factors" (1984) 2:175. After 1 or 2 days the samples were evaluated for their antiangiogenic effects on the CAM. […]
# Inhibition of embryonic angiogenesis was also quantitated by measuring the size of the affected zone surrounding the pellet as well as the portion of the pellet that borders the affected region. […]
# [2] = system: collagenase; test: Collagenase inhibition assay (Johnson-Wint radiometric); format: biochemical; details: 2 μg dose
# Description: Collagenase inhibitory activity was determined as described by Johnson-Wint (Anal. Biochem. (1980) 104:175). Peptides p1 (SEQ ID No. 1) and p27 (SEQ ID NO. 19) were tested in the Johnson-Witt radiometric enzyme assay for collagenase activity at doses of 50 ng, 100 ng, 250 ng, 500 ng, 1 μg and 2μg. Peptide p27 was inhibitory (-21%) at the 2μg dose.
# [3] = system: platelets; test: Direct platelet adhesion assay; format: cell-based; details: for Adherence as % Control: wells treated with 50 μl of 40 μg/ml solution, platelets
# Description: The number of adherent platelets was essentially determined as previously described (Tuszynski et al., Anal. Bio. supra). Briefly, 100 μl of 5×10^8 platelets/ml washed as previously described (Tuszynski, et al., Blood 72, 109-225, 1988) were added to microtiter plates, the wells of which were treated with 50 μl of a 40 μg/m] peptide or protein solution (Hepes buffered saline, pH 7.4). Solutions were dried at room temperature after incubation in a fume hood for two hours. Wells were blocked for one hour with 1% BSA. Platelets (100 μl) were incubated in the wells for 30 minutes and non-adherent platelets were removed by aspiration. Wells were washed 3X with 200 μl of Hepes buffered saline, pH 7.4. The number of adherent platelets was determined by measuring the platelet-derived protein using the BCA protein assay.
# [4] = system: B16 F10 mouse melanoma cells; test: Antimetastatic activity in vivo (lung tumors); set-up: species or system C57 black mice; details: for % buffer control (number of lung tumors): intravenous with cells, 16 days
# Description: After 16 days, the mice were sacrificed and the number of lung tumors counted.
# [5] = system: fibronectin (FN); test: Competitive platelet adhesion assay, absorbed fibronectin; format: cell-based; details: 250 μg/ml; absorbed protein FN; platelets
# Description: The direct adhesion assay of Example 7 was modified to measure the ability of the peptide compounds of the invention to compete with intact thrombospindin or fibronectin for adhesion of platelets.
# In this assay, thrombospondin (TSP) or fibronectin (FN) was absorbed onto microtiter dish as described in Example 7. The assay was similar to Example 7 except that before platelets were added to the microtiter dishes they were preincubated with 250 μg/ml of various ligands.
# [6] = system: intact thrombospondin; test: Competitive assay, thrombospondin specific adhesion to melanoma cells; format: cell-based; details: for % of buffer control: melanoma cell adhesion to absorbed thrombospondin
# Description: The direct adhesion assay of Example 5 was modified to measure the ability of the peptide compounds of the invention to compete with intact thrombospondin for adhesion to melanoma cells.
# In this assay, intact thrombospondin is absorbed onto microtiter dishes as described in Example 5. The assay is similar to Example 5 except that before the melanoma cells are added to the microtiter dishes they are preincubated for 15 minutes with 100 μg/ml of various ligands.
# [7] = system: Mouse B16 F10 melanoma cells; test: Direct adhesion assay (melanoma cells to adsorbed ligand); format: cell-based; details: for Adhesion as % Thrombospondin: absorbed compound 2 μg, B16 F10 melanoma cells
# Description: It is believed that thrombospondin acts in metastasis through its adhesive properties. […] In this assay, wells of a 96-well microtiter dish (Costar, 10 Cambridge, Massachusetts) were incubated for two to three hours with 50 μl of a 40 μg/ml solution of various ligands in 20 mM NaCl, pH 7.3. Thrombospondin (purified by the method of Tuszynski et al., J. Biol. Chem. (1985) 260:12240-5), fibronectin (Sigma Chemical Co., Missouri) served as the positive control. Bovine serum albumin (BSA) (Sigma Chemical Co.) served as the negative control. […] Following peptide adhesion to the microtiter dish, the wells were aspirated, treated with 200 μl phosphate buffered saline (PBS) containing 1% BSA for 1 hour and then washed three more times with 200 μl PBS.
# Mouse B16 F10 melanoma cells were grown and harvested during log phase of growth using standard procedures. The harvested cells were washed two times in serum-free Dulbecco's minimum essential medium (DMEM) (Flow Laboratories) and suspended in DMEM at a final concentration of 4×10^5 cells/ml. Of the cell suspension 100 μl was added to each well of the microtiter dish containing the various ligands and the dish incubated at 37° C. in a CO2 incubator for 1 hour. Nonadherent cells were removed by aspiration and the wells washed three times with 200 μl of PBS. The total cell-associated protein was determined by dissolving the attached cells directly in the microtiter wells with 200 μl of the Pierce BCA working solution (Pierce Chem. Co. Booklet No. 23225 (1987)). The plate was covered with an adhesive mylar sheet (Flow Labs) and incubated at 60° C. for 30 minutes. Plates were allowed to cool to room temperature, cover sheets were removed, and the absorbance of each well was determined at 562 nm with a microtiter plate reader (Biotek, Burlington, Vt.)
# [8] = system: Platelet-rich-plasma (PRP); test: Platelet aggregation assay (ADP, platelet-rich plasma); format: cell-based; details: 1 μM ADP
# Description: Platelet aggregation was monitored on a single-channel aggregometer equipped to measure luminescence (Chromo-Log, Havertown, Pa.). Platelet-rich-plasma (PRP) was obtained from whole blood anti-coagulated with 0.38% Sodium Citrate by centrifugation at 150 X g for 20 minutes. Peptides were added to 0.5 ml of PRP and aggregation initiated with 1 μM ADP. Buffer blanks contained diluent (water) but no peptide.
molecule,measurement,setting,value
CC(C)[C@H](NC(=O)[C@H](CO)NC(=O)[C@H](CS)NC(=O)[C@@H]1CCCN1C(=O)[C@H](CO)NC(=O)[C@@H](N)Cc1c[nH]c2ccccc12)C(=O)N[C@H](C(=O)N[C@@H](CS)C(=O)NCC(=O)O)[C@@H](C)O [p1] (H-WSPCSVTCG-OH),"toxicity to embryo (abnormal development, embryo death)",[1],not toxic
p27: Peptide p27 (SEQ ID NO. 19) tested in the collagenase assay; sequence not printed (WTSCSTSCG),"collagenase activity, inhibition",[2],-21%
WSPCSVTCG-NH2 (cysteine pairing not given here) [p6],adherence to platelets (in words),[3],adhere to platelets
same,Adherence as % Control,[3],38%
same,% buffer control (number of lung tumors),[4]; 30 μg/mouse,91%
same,% buffer control (number of lung tumors),[4]; 100 μg/mouse,102%
same,% buffer control (number of lung tumors),[4]; 300 μg/mouse,50%
same,number of lung tumors versus controls (in words),"[4]; mouse, in vivo",statistically fewer tumors than controls
same,size of lung tumors (in words),"[4]; mouse, in vivo",smaller in size
same,% Buffer Control,[5],96%
same,competition with thrombospondin for adhesion of melanoma cells (in words),[6],compete to a lesser degree
same,% of buffer control,[6]; 100 μg/ml,89%
same,% of buffer control,[6]; 200 μg/ml,74%
same,% of buffer control,[6]; 300 μg/ml,74%
same,Adhesion as % Thrombospondin,[7],70%
same,adhesive properties (in words),"[7]; melanoma cell adhesion, Table 1",display adhesive properties
same,"inhibition of platelet aggregation (in words, FIG. 1)",[8],inhibit platelet aggregation
fibronectin,Adherence as % Control,[3],83%
Thrombospondin [reference compound],Adherence as % Control,[3],100%
same,Adhesion as % Thrombospondin,[7],100%
"Bovine serum albumin [BSA, reference compound]",Adherence as % Control,[3],0.7%
same,Adhesion as % Thrombospondin,[7],13%
